Results reported in patent US20240383856A1 (Zedira GmbH, priority 2021, published 2024).
Blank lines part the entries; values can stand above or below the compound they belong to.

What was measured:
[1] = logD by shake flask method (octanol / PBS pH 7.4, HPLC); assay type: physicochemical; conditions: octanol / PBS pH 7.4, shake flask
Method in brief: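 Shake-flask partition of compound between octanol and phosphate-buffered saline at pH 7.4, with each phase quantified by HPLC to give LogD.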

[2] = Caco-2 permeability assay (CacoReady kit); assay type: in vitro ADME; conditions: human, Caco-2, Caco-2 barrier, CacoReady kit; above 1×10^−6 cm/s classified as permeable
Method in brief: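 Read-out is the permeability coefficient Papp, obtained from transport across a Caco-2 barrier prepared from a ready-to-use kit following the manufacturer's instructions.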

[3] = molecular target: T1, recombinant human transglutaminase 2 (Homo sapiens, UniProt P21980); assay: Transglutaminase assay (DCC-assay): incorporation of dansylcadaverine into dimethylcasein; assay type: biochemical; conditions: recombinant human TG2 10 nM; dansylcadaverine incorporation into dimethylcasein; read-out: IC50 TG2
T1 construct: purchased Zedira T022
T1 sequence (P21980 1-687): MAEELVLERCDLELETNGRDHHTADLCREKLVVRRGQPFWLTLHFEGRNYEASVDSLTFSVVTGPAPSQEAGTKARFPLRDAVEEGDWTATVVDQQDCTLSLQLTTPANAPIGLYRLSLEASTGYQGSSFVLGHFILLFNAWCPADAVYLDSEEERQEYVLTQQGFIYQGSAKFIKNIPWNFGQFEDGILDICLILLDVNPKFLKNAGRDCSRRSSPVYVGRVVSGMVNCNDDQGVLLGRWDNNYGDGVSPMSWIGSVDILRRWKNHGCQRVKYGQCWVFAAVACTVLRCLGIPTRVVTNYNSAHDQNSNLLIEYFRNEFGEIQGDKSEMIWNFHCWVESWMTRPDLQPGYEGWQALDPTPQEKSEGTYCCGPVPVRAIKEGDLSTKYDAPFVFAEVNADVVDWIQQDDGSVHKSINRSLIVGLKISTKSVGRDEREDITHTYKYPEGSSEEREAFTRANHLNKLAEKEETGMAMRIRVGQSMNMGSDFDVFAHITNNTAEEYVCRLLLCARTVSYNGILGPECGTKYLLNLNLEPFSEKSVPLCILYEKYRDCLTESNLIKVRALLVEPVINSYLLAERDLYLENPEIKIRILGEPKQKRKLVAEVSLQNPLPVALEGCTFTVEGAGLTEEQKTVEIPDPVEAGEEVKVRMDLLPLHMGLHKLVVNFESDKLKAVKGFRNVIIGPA
Method in brief: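 Recombinant human TG2 (10 nM final) incorporates dansylcadaverine into N,N-dimethylcasein. Reaction mix: 50 mM Tris-HCl, 10 mM CaCl2, 10 mM glutathione, 2.5% glycerol, 16.7 µM dansylcadaverine, 4 µM dimethylcasein, 200 mM NaCl, pH 8.0. Fluorescence (ex 330/em 500 nm) was followed 30 min at 37 °C; the 20–30 min slope, expressed as % of 2% DMSO control, gave IC50.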

SMILES: CCCCCNC(=O)C(=O)CC[C@H](NC(=O)c1oc2ccccc2c1C)C(=O)Nc1cccn(CC(=O)NC2C3CC4CC(C3)CC2C4)c1=O (stereo partly drawn) [II-116, (S)-N1-(1-(2-(2-adamantylamino)-2-oxoethyl)-2-oxo-1,2-dihydropyridin-3-yl)-2-(3-methylbenzofuran-2-carboxamido)-5-oxo-N6-pentylhexanediamide]
logD [1]: 3 to 5
Papp [2]: 10 to 100 nm/s
IC50 [3]: 0.04 to 0.4 µM

SMILES: C=CCNC(=O)C(=O)CC[C@H](NC(=O)c1cc2ccccc2o1)C(=O)Nc1cccn(CC(=O)NC2C3CC4CC(C3)CC2C4)c1=O (stereo partly drawn) [II-119, (S)-N1-allyl-5-(benzofuran-2-carboxamido)-N6-(1-(2-(2-adamantylamino)-2-oxoethyl)-2-oxo-1,2-dihydropyridin-3-yl)-2-oxohexanediamide]
logD [1]: 3 to 5
Papp [2]: 10 to 100 nm/s
IC50 [3]: 0.04 to 0.4 µM

SMILES: CC(C)NC(=O)C(=O)CC[C@H](NC(=O)c1cc2ccccc2o1)C(=O)Nc1cccn(CC(=O)NC2C3CC4CC(C3)CC2C4)c1=O (stereo partly drawn) [II-120, (S)-2-(benzofuran-2-carboxamido)-N6-isopropyl-N1-(1-(2-(2-adamantylamino)-2-oxoethyl)-2-oxo-1,2-dihydropyridin-3-yl)-5-oxohexanediamide]
logD [1]: 3 to 5
Papp [2]: 10 to 100 nm/s
IC50 [3]: 0.04 to 0.4 µM

SMILES: NC(=O)C(=O)CC[C@H](NC(=O)c1cc2ccccc2o1)C(=O)Nc1cccn(CC(=O)NC2C3CC4CC(C3)CC2C4)c1=O (stereo partly drawn) [II-124, (S)-2-(benzofuran-2-carboxamido)-N1-(1-(2-(2-adamantylamino)-2-oxoethyl)-2-oxo-1,2-dihydropyridin-3-yl)-5-oxohexanediamide]
logD [1]: 1 to 3
Papp [2]: 10 to 100 nm/s
IC50 [3]: 0.04 to 0.4 µM

SMILES: Cc1nc(C(F)(F)F)sc1C(=O)N[C@@H](CCC(=O)C(N)=O)C(=O)Nc1cccn(CC(=O)NC2C3CC4CC(C3)CC2C4)c1=O (stereo partly drawn) [II-126, (S)-N1-(1-(2-(2-adamantylamino)-2-oxoethyl)-2-oxo-1,2-dihydropyridin-3-yl)-2-(4-methyl-2-(trifluoromethyl)thiazole-5-carboxamido)-5-oxohexanediamide]
logD [1]: < 1
Papp [2]: 10 to 100 nm/s
IC50 [3]: 0.04 to 0.4 µM

SMILES: CNC(=O)C(=O)CC[C@H](NC(=O)c1sc(C(F)(F)F)nc1C)C(=O)Nc1cccn(CC(=O)N[C@@H]2C[C@H]3CC[C@@H]2C3)c1=O [II-129, (2S)-N1-(1-(2-((1R,2R,4S)-bicyclo[2.2.1]heptan-2-ylamino)-2-oxoethyl)-2-oxo-1,2-dihydropyridin-3-yl)-N6-methyl-2-(4-methyl-2-(trifluoromethyl)thiazole-5-carboxamido)-5-oxohexanediamide]
logD [1]: 1 to 3
Papp [2]: < 10 nm/s
IC50 [3]: 0.04 to 0.4 µM

SMILES: CNC(=O)C(=O)CC[C@H](NC(=O)c1nc[nH]n1)C(=O)Nc1cccn(CC(=O)NC2C3CC4CC(C3)CC2C4)c1=O (stereo partly drawn) [II-134, (S)-N1-(1-(2-(2-adamantylamino)-2-oxoethyl)-2-oxo-1,2-dihydropyridin-3-yl)-N6-methyl-5-oxo-2-(1H-1,2,4-triazole-3-carboxamido)hexanediamide]
logD [1]: < 1
Papp [2]: < 10 nm/s
IC50 [3]: 0.4 to 2.5 µM

SMILES: CNC(=O)C(=O)CC[C@H](NC(=O)c1ncn(C)n1)C(=O)Nc1cccn(CC(=O)NC2C3CC4CC(C3)CC2C4)c1=O (stereo partly drawn) [II-135, (S)-N1-(1-(2-(2-adamantylamino)-2-oxoethyl)-2-oxo-1,2-dihydropyridin-3-yl)-N6-methyl-2-(1-methyl-1H-1,2,4-triazole-3-carboxamido)-5-oxohexanediamide]
logD [1]: < 1
Papp [2]: 10 to 100 nm/s
IC50 [3]: 0.04 to 0.4 µM

More lines, now with the values ahead:

logD [1]: 3 to 5
Papp [2]: 10 to 100 nm/s
IC50 [3]: 0.04 to 0.4 µM
SMILES: C=CCNC(=O)C(=O)CC[C@H](NC(=O)c1oc2ccccc2c1C)C(=O)Nc1cccn(CC(=O)NC2C3CC4CC(C3)CC2C4)c1=O (stereo partly drawn) [II-117, (S)-N1-allyl-N6-(1-(2-(2-adamantylamino)-2-oxoethyl)-2-oxo-1,2-dihydropyridin-3-yl)-5-(3-methylbenzofuran-2-carboxamido)-2-oxohexanediamide]

logD [1]: 1 to 3
Papp [2]: 10 to 100 nm/s
IC50 [3]: < 0.04 µM
SMILES: Cc1c(C(=O)N[C@@H](CCC(=O)C(N)=O)C(=O)Nc2cccn(CC(=O)NC3C4CC5CC(C4)CC3C5)c2=O)oc2ccccc12 (stereo partly drawn) [II-118, (S)-N1-(1-(2-(2-adamantylamino)-2-oxoethyl)-2-oxo-1,2-dihydropyridin-3-yl)-2-(3-methylbenzofuran-2-carboxamido)-5-oxohexanediamide]

logD [1]: 3 to 5
Papp [2]: 10 to 100 nm/s
IC50 [3]: 0.04 to 0.4 µM
SMILES: O=C(Cn1cccc(NC(=O)[C@H](CCC(=O)C(=O)NC2CC2)NC(=O)c2cc3ccccc3o2)c1=O)NC1C2CC3CC(C2)CC1C3 (stereo partly drawn) [II-121, (S)-2-(benzofuran-2-carboxamido)-N6-cyclopropyl-N1-(1-(2-(2-adamantylamino)-2-oxoethyl)-2-oxo-1,2-dihydropyridin-3-yl)-5-oxohexanediamide]

logD [1]: 3 to 5
Papp [2]: 10 to 100 nm/s
IC50 [3]: 0.4 to 2.5 µM
SMILES: O=C(Cn1cccc(NC(=O)[C@H](CCC(=O)C(=O)Nc2ccccc2)NC(=O)c2cc3ccccc3o2)c1=O)NC1C2CC3CC(C2)CC1C3 (stereo partly drawn) [II-122, (S)-2-(benzofuran-2-carboxamido)-N1-(1-(2-(2-adamantylamino)-2-oxoethyl)-2-oxo-1,2-dihydropyridin-3-yl)-5-oxo-N6-phenylhexanediamide]

logD [1]: 3 to 5
Papp [2]: 10 to 100 nm/s
IC50 [3]: 0.4 to 2.5 µM
SMILES: O=C(Cn1cccc(NC(=O)[C@H](CCC(=O)C(=O)NCc2ccccc2)NC(=O)c2cc3ccccc3o2)c1=O)NC1C2CC3CC(C2)CC1C3 (stereo partly drawn) [II-123, (S)-2-(benzofuran-2-carboxamido)-N6-benzyl-N1-(1-(2-(2-adamantylamino)-2-oxoethyl)-2-oxo-1,2-dihydropyridin-3-yl)-5-oxohexanediamide]

logD [1]: 1 to 3
Papp [2]: 10 to 100 nm/s
IC50 [3]: 0.04 to 0.4 µM
SMILES: NC(=O)C(=O)CC[C@H](NC(=O)c1cc(Cl)sc1Cl)C(=O)Nc1cccn(CC(=O)NC2C3CC4CC(C3)CC2C4)c1=O (stereo partly drawn) [II-125, (S)-2-(2,5-dichlorothiophene-3-carboxamido)-N1-(1-(2-(2-adamantylamino)-2-oxoethyl)-2-oxo-1,2-dihydropyridin-3-yl)-5-oxohexanediamide]

logD [1]: < 1
Papp [2]: < 10 nm/s
IC50 [3]: 0.04 to 0.4 µM
SMILES: Cn1nncc1C(=O)N[C@@H](CCC(=O)C(N)=O)C(=O)Nc1cccn(CC(=O)NC2C3CC4CC(C3)CC2C4)c1=O (stereo partly drawn) [II-127, (S)-N1-(1-(2-(2-adamantylamino)-2-oxoethyl)-2-oxo-1,2-dihydropyridin-3-yl)-2-(1-methyl-1H-1,2,3-triazole-5-carboxamido)-5-oxohexanediamide]

logD [1]: 1 to 3
Papp [2]: 10 to 100 nm/s
IC50 [3]: 0.04 to 0.4 µM
SMILES: CNC(=O)C(=O)CC[C@H](NC(=O)c1cc(Cl)sc1Cl)C(=O)Nc1cccn(CC(=O)N[C@@H]2C[C@H]3CC[C@@H]2C3)c1=O [II-128, (2S)-N1-(1-(2-((1R,2R,4S)-bicyclo[2.2.1]heptan-2-ylamino)-2-oxoethyl)-2-oxo-1,2-dihydropyridin-3-yl)-2-(2,5-dichlorothiophene-3-carboxamido)-N6-methyl-5-oxohexanediamide]

logD [1]: < 1
Papp [2]: < 10 nm/s
IC50 [3]: 0.04 to 0.4 µM
SMILES: CNC(=O)C(=O)CC[C@H](NC(=O)c1cnnn1C)C(=O)Nc1cccn(CC(=O)N[C@@H]2C[C@H]3CC[C@@H]2C3)c1=O [II-130, (2S)-N1-(1-(2-((1R,2R,4S)-bicyclo[2.2.1]heptan-2-ylamino)-2-oxoethyl)-2-oxo-1,2-dihydropyridin-3-yl)-N6-methyl-2-(1-methyl-1H-1,2,3-triazole-5-carboxamido)-5-oxohexanediamide]

logD [1]: < 1
Papp [2]: < 10 nm/s
IC50 [3]: 0.04 to 0.4 µM
SMILES: CNC(=O)C(=O)CC[C@H](NC(=O)c1cn[nH]n1)C(=O)Nc1cccn(CC(=O)NC2C3CC4CC(C3)CC2C4)c1=O (stereo partly drawn) [II-131, (S)-N1-(1-(2-(2-adamantylamino)-2-oxoethyl)-2-oxo-1,2-dihydropyridin-3-yl)-N6-methyl-5-oxo-2-(2H-1,2,3-triazole-4-carboxamido) hexanediamide]

logD [1]: < 1
Papp [2]: 10 to 100 nm/s
IC50 [3]: 0.4 to 2.5 µM
SMILES: CNC(=O)C(=O)CC[C@H](NC(=O)c1cn(C)nn1)C(=O)Nc1cccn(CC(=O)NC2C3CC4CC(C3)CC2C4)c1=O (stereo partly drawn) [II-133, (S)-N1-(1-(2-(2-adamantylamino)-2-oxoethyl)-2-oxo-1,2-dihydropyridin-3-yl)-N6-methyl-2-(1-methyl-1H-1,2,3-triazole-4-carboxamido)-5-oxohexanediamide]
